According to patent US20260034277A1, “SYSTEMS AND METHODS FOR PATHOGEN INACTIVATION OF BLOOD PRODUCTS” (Cerus Corporation, priority 2024, published 2026):

Assays:
bluetongue virus (BTV) = test: Bluetongue virus inactivation in platelet units with amotosalen/UVA, plaque assay; type: cell-based
Description: A study was performed to evaluate pathogen inactivation with treatment profiles from Example 1 and the non-enveloped virus bluetongue virus (BTV). Units of platelets, prepared in 47% plasma/53% PAS at a volume of 250 mL, were inoculated with BTV (targeting the final concentration in unit of approximately 4.5 log PFU/mL), and dosed with the target amotosalen concentration (40 μM, 50 μM, 60 μM, or 70 μM) in an illumination container of an INTERCEPT® Blood System processing set. The units were mixed well, and samples were collected from each unit prior to UV illumination to determine pre-treatment viral titers and amotosalen concentration. The BTV-contaminated platelet units were then subjected to a UVA light dose of 3.8 J/cm^2 using an illuminator with LED light sources having peak wavelength between 340-350 nm. Samples were collected post-illumination, and both the pre- and post-UVA illumination samples were analyzed by standard plaque assay to determine the level of virus inactivation.
(§1) Pathogen inactivation of both viruses and bacteria was also tested using dosing device system-based quantized dosing of amotosalen and the treatment parameters described above. In one study, four units of platelets in 47% plasma/53% PAS at a higher 450 mL volume were inoculated in a 1.3 L illumination container with bluetongue virus (BTV) at a target pathogen input concentration of approximately 5.0 log PFU/mL per unit and dosed with amotosalen (S-59) to achieve at a target concentration of 55 μM. The units were mixed, and samples were collected from each unit prior to UV illumination to determine pre-treatment viral titers and S-59 concentration. The BTV-contaminated platelet units were then subjected to a UVA light dose of 6.3 J/cm^2 using an illuminator with LED light sources having peak wavelength between 340-350 nm. Samples were collected post-illumination, and both the pre- and post-UVA illumination samples were analyzed by standard plaque assay to determine the level of virus inactivation and by HPLC to determine the S-59 concentration.

[1] = S-59 photoconversion in platelets after dosing-device delivery, HPLC pre- and post-illumination; type: physicochemical; settings: target 55 μM
Description: After confirming the accuracy of S-59 dosing into PAS, the next study evaluated dosing of S-59 into a blood component, platelets suspended in plasma and PAS, and photoconversion of S-59 post-UVA treatment to determine residual S-59 levels and generate (e.g., plot) a volume to light dose curve, similar to Example 1. Different size illumination containers (1.0 L and 1.3 L) were evaluated with multiple different platelet volumes and multiple different UVA light doses used for photochemical treatment of each volume and container size.
More specifically, platelets suspended in […]/53% PAS at volumes of 200 mL, 250 mL or 300 mL in a 1.0 L illumination container, and 300 mL, 350 mL or 450 mL in a 1.3 L illumination container, were dosed at varying input volumes of the S-59 psoralen compound to achieve a target final concentration of 55 μM. Samples were taken to confirm pre-illumination S-59 concentration and each of the S-59 containing platelet volumes was then illuminated with different light doses as shown in the following Tables 8A and 8B using an illuminator device with LED light sources (e.g., narrow bandwidth) having peak wavelength between 340-350 nm.
as §1
(§2) A similar study was performed with the bacterium Klebsiella pneumoniae. Four units of platelets in 47% plasma/53% PAS at a volume of 450 mL were inoculated in a 1.3 L illumination container with an overnight culture of Klebsiella pneumoniae at a target input pathogen concentration of approximately 8 log CFU/mL per unit and dosed with S-59 to achieve a target concentration of 55 μM. Samples were collected pre- and post-UVA illumination with a light dose of 6.3 J/cm^2 for determination of bacterial titers by standard colony forming unit assay and S-59 concentration by HPLC.

Klebsiella pneumoniae = Klebsiella pneumoniae inactivation in platelet units with amotosalen/UVA, colony forming unit assay; type: cell-based
Description: A study was performed to evaluate pathogen inactivation with treatment profiles from Example 1 and the bacterium Klebsiella pneumoniae. Units of platelets, prepared in 47% plasma/53% PAS at a volume of 250 mL (except the 70 μM study group at a volume of 200 mL), were inoculated with an overnight culture of Klebsiella pneumoniae (targeting the final concentration in unit of approximately 6 log CFU/mL) and dosed with the target amotosalen concentration (40 μM, 45 μM, 55 μM or 70 μM) in an illumination container of an INTERCEPT® Blood System processing set. The units were mixed well, and samples were collected from each unit prior to UV illumination to determine pre-treatment bacterial titers and amotosalen concentration. The Klebsiella-contaminated platelet units were then subjected to a UVA light dose of 3.8 J/cm^2 (3.2 J/cm^2 for the 200 mL units) using an illuminator with LED light sources having peak wavelength between 340-350 nm. Samples were collected post-illumination and both the pre- and post-UVA illumination samples were analyzed by standard colony forming unit assay to determine the level of bacterial inactivation.
as §2

[2] = device-dosed S-59 target 55 μM, 450 mL platelets, 1.3 L container, UVA 6.3 J/cm^2
[3] = target S-59 40 μM, 250 mL platelets, UVA 3.8 J/cm^2
[4] = target S-59 50 μM, 250 mL platelets, UVA 3.8 J/cm^2
[5] = target S-59 60 μM, 250 mL platelets, UVA 3.8 J/cm^2
[6] = target S-59 70 μM, 250 mL platelets, UVA 3.8 J/cm^2
[7] = target S-59 45 μM, 250 mL platelets, UVA 3.8 J/cm^2
[8] = target S-59 55 μM, 250 mL platelets, UVA 3.8 J/cm^2
[9] = target S-59 70 μM, 200 mL platelets, UVA 3.2 J/cm^2

Cc1oc2c(C)c3oc(=O)cc(C)c3cc2c1COCCN [S-59, 3-(2-aminoethoxymethyl)-2,5,9-trimethylfuro[3,2-g]chromen-7-one]
Log Reduction (bluetongue virus (BTV); [2]): 5.0±0.4 Log (pfu/mL)
Post-UVA titer (bluetongue virus (BTV); [2]): 0.7 ± 0.6 pfu/mL
viral inactivation (bluetongue virus (BTV); each of the four target amotosalen input concentrations (40, 50, 60, 70 μM)): greater than 4 logs
Log Reduction (bluetongue virus (BTV); [3]): 4.4 ± 0.1 log
Post-UVA PFU/mL (bluetongue virus (BTV); [3]): 0.3 ± 0.1 PFU/mL
Log Reduction (bluetongue virus (BTV); [4]): 4.4 ± 0.4 log
Post-UVA PFU/mL (bluetongue virus (BTV); [4]): 0.1 ± 0.1 PFU/mL
Log Reduction (bluetongue virus (BTV); [5]): >4.6 ± 0.5 log
Post-UVA PFU/mL (bluetongue virus (BTV); [5]): 0.02 ± 0.03 PFU/mL
Log Reduction (bluetongue virus (BTV); [6]): 4.2 ± 0.1 log
Post-UVA PFU/mL (bluetongue virus (BTV); [6]): 0.1 ± 0.2 PFU/mL
Post-UVA S-59 ([1]; 1.0 L container, 200 mL platelets, 2.8 J/cm^2): 5.22 ± 0.50 µM
Post-UVA S-59 ([1]; 1.0 L container, 200 mL platelets, 3.0 J/cm^2): 4.40 ± 0.64 µM
Post-UVA S-59 ([1]; 1.0 L container, 200 mL platelets, 3.2 J/cm^2): 3.71 ± 0.07 µM
Post-UVA S-59 ([1]; 1.0 L container, 200 mL platelets, 3.4 J/cm^2): 3.09 ± 0.18 µM
Post-UVA S-59 ([1]; 1.0 L container, 250 mL platelets, 3.4 J/cm^2): 4.25 ± 0.13 µM
Post-UVA S-59 ([1]; 1.0 L container, 250 mL platelets, 3.6 J/cm^2): 3.83 ± 0.74 µM
Post-UVA S-59 ([1]; 1.0 L container, 250 mL platelets, 3.8 J/cm^2): 3.81 ± 0.49 µM
Post-UVA S-59 ([1]; 1.0 L container, 250 mL platelets, 4.0 J/cm^2): 3.11 ± 1.18 µM
Post-UVA S-59 ([1]; 1.0 L container, 300 mL platelets, 4.1 J/cm^2): 7.13 ± 2.95 µM
Post-UVA S-59 ([1]; 1.0 L container, 300 mL platelets, 4.3 J/cm^2): 6.85 ± 3.00 µM
Post-UVA S-59 ([1]; 1.0 L container, 300 mL platelets, 4.6 J/cm^2): 2.86 ± 1.36 µM
Post-UVA S-59 ([1]; 1.0 L container, 300 mL platelets, 4.8 J/cm^2): 3.63 ± 1.66 µM
Post-UVA S-59 ([1]; 1.3 L container, 300 mL platelets, 4.1 J/cm^2): 4.64 ± 0.13 µM
Post-UVA S-59 ([1]; 1.3 L container, 300 mL platelets, 4.3 J/cm^2): 3.43 ± 1.30 µM
Post-UVA S-59 ([1]; 1.3 L container, 350 mL platelets, 4.8 J/cm^2): 3.54 ± 1.01 µM
Post-UVA S-59 ([1]; 1.3 L container, 350 mL platelets, 5.0 J/cm^2): 2.98 ± 0.91 µM
Post-UVA S-59 ([1]; 1.3 L container, 450 mL platelets, 6.1 J/cm^2): 3.79 ± 0.49 µM
Post-UVA S-59 ([1]; 1.3 L container, 450 mL platelets, 6.3 J/cm^2): 3.56 ± 0.37 µM
Post-UVA S-59 ([1]; BTV-inoculated units, 450 mL platelets, 1.3 L container, 6.3 J/cm^2): 3.0 ± 0.7 µM
Post-UVA S-59 ([1]; K. pneumoniae-inoculated units, 450 mL platelets, 1.3 L container, 6.3 J/cm^2): 3.2 ± 0.5 µM
Post-UVA titer (Klebsiella pneumoniae; [2]): 0.3 ± 0.4 cfu/mL
bacterial inactivation (log reduction) (Klebsiella pneumoniae; each of the four target amotosalen input concentrations (40, 45, 55, 70 μM)): greater than 5 logs
Log Reduction (Klebsiella pneumoniae; [3]): 5.6 ± 0.8 log
Post-UVA CFU/mL (Klebsiella pneumoniae; [3]): 6.7 ± 11.5 CFU/mL
Log Reduction (Klebsiella pneumoniae; [7]): 5.9 ± 0.0 log
Post-UVA CFU/mL (Klebsiella pneumoniae; [7]): 0.2 ± 0.1 CFU/mL
Log Reduction (Klebsiella pneumoniae; [8]): 6.0 ± 0.1 log
Post-UVA CFU/mL (Klebsiella pneumoniae; [8]): 0.4 ± 0.5 CFU/mL
Log Reduction (Klebsiella pneumoniae; [9]): ≥6.1 ± 0.1 log
Post-UVA CFU/mL (Klebsiella pneumoniae; [9]): 0.03 ± 0.1 CFU/mL
